{"source": "patent US20090239840A1", "about": "“AMINO SUBSTITUTED DIARYL[a,d]CYCLOHEPTENE ANALOGS AS [sequence] AGONISTS AND METHODS OF TREATMENT OF NEUROPSYCHIATRIC DISORDERS” (ACADIA PHARMACEUTICALS, INC., priority 2003, published 2009)", "key": {"CYP 2C19": {"target": "CYP 2C19 (Homo sapiens, UniProt P33261)", "sequence (P33261 whole entry)": "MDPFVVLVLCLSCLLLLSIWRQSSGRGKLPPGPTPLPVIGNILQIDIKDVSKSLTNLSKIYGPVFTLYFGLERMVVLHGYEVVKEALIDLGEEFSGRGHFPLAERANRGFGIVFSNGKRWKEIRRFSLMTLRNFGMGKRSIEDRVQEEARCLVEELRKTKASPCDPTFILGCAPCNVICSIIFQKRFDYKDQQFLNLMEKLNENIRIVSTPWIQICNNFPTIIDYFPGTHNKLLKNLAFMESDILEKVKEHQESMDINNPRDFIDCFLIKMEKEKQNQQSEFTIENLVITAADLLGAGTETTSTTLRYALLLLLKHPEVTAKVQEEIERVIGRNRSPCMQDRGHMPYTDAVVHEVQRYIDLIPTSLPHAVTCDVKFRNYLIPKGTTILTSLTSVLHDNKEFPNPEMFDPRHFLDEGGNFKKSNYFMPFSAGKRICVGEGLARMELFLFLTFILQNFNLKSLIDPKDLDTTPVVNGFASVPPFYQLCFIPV", "assay": "CYP inhibition, 2C19", "type": "in vitro ADME"}, "[1]": {"assay": "Human microsomal clearance", "type": "in vitro ADME", "conditions": "human microsomes"}, "muscarinic M1 receptor": {"target": "T1, muscarinic M1 receptor (Homo sapiens, UniProt P11229)", "T1 construct": "expressed in transfected cells", "T1 sequence (P11229 1-460)": "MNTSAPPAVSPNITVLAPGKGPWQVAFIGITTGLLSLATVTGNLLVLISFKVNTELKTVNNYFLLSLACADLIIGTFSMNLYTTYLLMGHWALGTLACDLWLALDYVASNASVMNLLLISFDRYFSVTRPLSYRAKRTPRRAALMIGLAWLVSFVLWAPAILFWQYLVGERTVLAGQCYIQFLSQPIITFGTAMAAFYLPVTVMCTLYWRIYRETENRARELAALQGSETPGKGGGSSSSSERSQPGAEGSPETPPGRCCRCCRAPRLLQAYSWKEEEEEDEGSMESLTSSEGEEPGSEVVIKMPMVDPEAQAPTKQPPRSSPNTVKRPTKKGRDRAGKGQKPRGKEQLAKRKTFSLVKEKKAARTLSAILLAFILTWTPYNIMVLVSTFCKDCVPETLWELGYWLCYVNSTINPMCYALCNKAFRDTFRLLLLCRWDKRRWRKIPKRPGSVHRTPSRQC", "assay": "R-SAT functional screen, M1", "type": "cell-based", "conditions": "R-SAT", "summary_of_the_method": "(§1)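 Receptor Selection and Amplification Technology (R-SAT) functional cell assay at M1, M2, M3 receptors. Values reported as efficacy (eff) and potency as pEC50.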"}, "CYP 2C9": {"target": "CYP 2C9 (Homo sapiens, UniProt P11712)", "sequence (P11712 whole entry)": "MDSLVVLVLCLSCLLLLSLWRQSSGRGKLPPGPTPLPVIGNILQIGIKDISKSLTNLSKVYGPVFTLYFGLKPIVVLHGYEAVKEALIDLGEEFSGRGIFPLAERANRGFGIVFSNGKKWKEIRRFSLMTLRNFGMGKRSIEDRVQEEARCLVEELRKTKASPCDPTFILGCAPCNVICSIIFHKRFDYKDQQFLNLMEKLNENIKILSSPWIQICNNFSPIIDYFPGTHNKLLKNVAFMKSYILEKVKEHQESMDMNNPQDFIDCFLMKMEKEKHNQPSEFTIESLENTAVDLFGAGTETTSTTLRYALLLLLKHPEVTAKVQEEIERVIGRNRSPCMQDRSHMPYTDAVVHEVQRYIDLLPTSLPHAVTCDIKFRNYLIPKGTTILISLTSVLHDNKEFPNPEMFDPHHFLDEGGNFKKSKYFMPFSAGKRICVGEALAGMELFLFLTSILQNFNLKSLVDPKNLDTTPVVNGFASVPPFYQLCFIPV", "assay": "CYP inhibition, 2C9", "type": "in vitro ADME"}, "CYP 1A2": {"target": "T2, CYP 1A2 (Homo sapiens, UniProt P05177)", "T2 sequence (P05177 1-516)": "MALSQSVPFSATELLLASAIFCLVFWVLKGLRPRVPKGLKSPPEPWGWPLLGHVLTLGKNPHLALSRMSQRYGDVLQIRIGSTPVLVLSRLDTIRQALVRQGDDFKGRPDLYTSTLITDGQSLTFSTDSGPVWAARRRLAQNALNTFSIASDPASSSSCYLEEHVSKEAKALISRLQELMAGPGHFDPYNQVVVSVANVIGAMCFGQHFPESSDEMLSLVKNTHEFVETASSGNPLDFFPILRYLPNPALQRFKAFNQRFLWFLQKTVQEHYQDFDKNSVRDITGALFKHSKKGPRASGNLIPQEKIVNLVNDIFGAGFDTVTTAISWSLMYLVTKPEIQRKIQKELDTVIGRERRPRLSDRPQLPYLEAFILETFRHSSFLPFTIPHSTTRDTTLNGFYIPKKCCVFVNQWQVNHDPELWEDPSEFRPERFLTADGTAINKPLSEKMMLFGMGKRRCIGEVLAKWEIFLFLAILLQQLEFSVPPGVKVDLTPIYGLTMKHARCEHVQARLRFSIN", "assay": "CYP inhibition, 1A2", "type": "in vitro ADME"}, "CYP 2D6": {"target": "CYP 2D6 (Homo sapiens, UniProt P10635)", "sequence (P10635 whole entry)": "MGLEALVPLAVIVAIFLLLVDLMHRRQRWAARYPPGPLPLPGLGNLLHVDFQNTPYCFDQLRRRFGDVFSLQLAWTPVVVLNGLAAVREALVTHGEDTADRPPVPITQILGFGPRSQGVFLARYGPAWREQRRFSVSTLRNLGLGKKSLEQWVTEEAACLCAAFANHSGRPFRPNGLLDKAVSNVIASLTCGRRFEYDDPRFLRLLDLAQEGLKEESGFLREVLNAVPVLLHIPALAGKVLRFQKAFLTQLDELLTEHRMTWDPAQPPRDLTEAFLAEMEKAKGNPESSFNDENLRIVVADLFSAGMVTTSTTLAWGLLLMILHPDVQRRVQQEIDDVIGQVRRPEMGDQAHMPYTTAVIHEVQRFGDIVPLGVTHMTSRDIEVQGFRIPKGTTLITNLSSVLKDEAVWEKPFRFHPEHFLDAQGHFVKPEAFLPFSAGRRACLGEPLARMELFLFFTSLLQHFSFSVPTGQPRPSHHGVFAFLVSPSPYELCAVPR", "assay": "CYP inhibition, 2D6", "type": "in vitro ADME"}, "Rat microsomal clearance": {"assay": "Rat microsomal clearance", "type": "in vitro ADME", "conditions": "rat microsomes"}, "muscarinic M3 receptor": {"target": "T3, muscarinic M3 receptor (Homo sapiens, UniProt P20309)", "T3 construct": "expressed in transfected cells", "T3 sequence (P20309 whole entry)": "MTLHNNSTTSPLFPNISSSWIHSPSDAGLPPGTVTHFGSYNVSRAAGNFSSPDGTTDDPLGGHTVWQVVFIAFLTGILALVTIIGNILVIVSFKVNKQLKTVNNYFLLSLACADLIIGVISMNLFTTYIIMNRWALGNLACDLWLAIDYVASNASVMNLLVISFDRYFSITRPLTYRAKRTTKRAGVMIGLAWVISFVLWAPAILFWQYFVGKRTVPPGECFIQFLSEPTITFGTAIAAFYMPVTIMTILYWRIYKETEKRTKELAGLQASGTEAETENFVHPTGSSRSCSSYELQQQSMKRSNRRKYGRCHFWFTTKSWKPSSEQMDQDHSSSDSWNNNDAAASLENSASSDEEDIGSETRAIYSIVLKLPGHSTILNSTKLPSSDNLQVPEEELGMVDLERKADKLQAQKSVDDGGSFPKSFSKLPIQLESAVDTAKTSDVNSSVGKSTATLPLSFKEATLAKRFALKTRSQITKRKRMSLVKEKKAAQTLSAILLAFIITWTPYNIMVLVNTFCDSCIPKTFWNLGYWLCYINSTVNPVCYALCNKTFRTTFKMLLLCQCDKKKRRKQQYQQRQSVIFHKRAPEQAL", "assay": "R-SAT functional screen, M3", "type": "cell-based", "description": "The term “modulate” refers to the ability of a compound disclosed herein to alter the function of a muscarinic receptor. A modulator may activate the activity of a muscarinic receptor, may activate or inhibit the activity of a muscarinic receptor depending on the concentration of the compound exposed to the muscarinic receptor, or may inhibit the activity of a muscarinic receptor. The term “modulate” also refers to altering the function of a muscarinic receptor by increasing or decreasing the probability that a complex forms between a muscarinic receptor and a natural binding partner. A modulator may increase the probability that such a complex forms between the muscarinic receptor and the natural binding partner, may increase or decrease the probability that a complex forms between the muscarinic receptor and the natural binding partner depending on the concentration of the compound exposed to the muscarinic receptor, and or may decrease the probability that a complex forms between the muscarinic receptor and the natural binding partner. In some embodiments, modulation of the muscarinic receptor may be assessed using Receptor Selection and Amplification Technology (R-SAT) as described in U.S. Pat. No. 5,707,798, the disclosure of which is incorporated herein by reference in its entirety.\nSeveral compounds disclosed herein were evaluated for activity at muscarinic receptors using Receptor Selection and Amplification Technology (R-SAT) as described in U.S. Pat. No. 5,707,798, the disclosure of which is incorporated herein by reference in its entirety. The efficacy (eff) and potency (expressed as pEC50) of these compounds are presented in Table 1 at M1, M2, and M3 receptors."}, "[2]": {"test_system": "hyperactivity induced by amphetamine", "assay": "Amphetamine induced hyperactivity mouse model", "type": "in vivo", "conditions": "mice, salts of the compounds", "description": "(§2) Five of the compounds listed in Table 2 were tested in an in vivo assay predictive of antipsychotic activity. Salts of these compounds where administered to mice having hyperactivity induced by amphetamine or MK-801 administration. The compounds were administered both subcutaneously (sc) and orally (po)."}, "D2 receptor": {"target": "D2 receptor (Homo sapiens, UniProt P14416)", "sequence (P14416 whole entry)": "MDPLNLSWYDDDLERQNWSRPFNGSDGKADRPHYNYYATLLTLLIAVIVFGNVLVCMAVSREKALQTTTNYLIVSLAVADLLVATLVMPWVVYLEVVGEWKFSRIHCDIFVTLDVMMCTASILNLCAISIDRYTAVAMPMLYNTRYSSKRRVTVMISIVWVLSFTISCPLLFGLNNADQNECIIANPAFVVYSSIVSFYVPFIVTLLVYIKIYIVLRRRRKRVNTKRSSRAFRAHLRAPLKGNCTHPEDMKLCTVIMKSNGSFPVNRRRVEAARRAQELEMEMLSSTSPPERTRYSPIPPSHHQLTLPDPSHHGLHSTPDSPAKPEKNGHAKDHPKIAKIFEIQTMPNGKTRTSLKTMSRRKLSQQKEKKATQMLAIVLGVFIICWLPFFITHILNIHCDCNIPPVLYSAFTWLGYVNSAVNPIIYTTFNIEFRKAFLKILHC", "assay": "Receptor profile, D2 agonist activity"}, "Ames mutagenesis assay": {"assay": "Ames mutagenesis assay", "type": "cell-based", "conditions": "to 10 μM (cytotoxicity precluded evaluation of all concentrations)"}, "novel object recognition": {"test_system": "novel object recognition", "assay": "Novel object recognition (NOR) assay", "type": "in vivo", "conditions": "mice", "description": "Salts of the compounds were administered to mice at one hour post-training (a time-point at which animals normally behaviorally discriminate between novel and familiar objects) and two hours post-training (a time-point at which these animals normally no longer discriminate between objects). Doses were selected to correspond to the approximate ID75 value in the MK-801 hyperactivity assay."}, "hERG": {"target": "hERG (Homo sapiens, UniProt Q12809)", "sequence (Q12809 whole entry)": "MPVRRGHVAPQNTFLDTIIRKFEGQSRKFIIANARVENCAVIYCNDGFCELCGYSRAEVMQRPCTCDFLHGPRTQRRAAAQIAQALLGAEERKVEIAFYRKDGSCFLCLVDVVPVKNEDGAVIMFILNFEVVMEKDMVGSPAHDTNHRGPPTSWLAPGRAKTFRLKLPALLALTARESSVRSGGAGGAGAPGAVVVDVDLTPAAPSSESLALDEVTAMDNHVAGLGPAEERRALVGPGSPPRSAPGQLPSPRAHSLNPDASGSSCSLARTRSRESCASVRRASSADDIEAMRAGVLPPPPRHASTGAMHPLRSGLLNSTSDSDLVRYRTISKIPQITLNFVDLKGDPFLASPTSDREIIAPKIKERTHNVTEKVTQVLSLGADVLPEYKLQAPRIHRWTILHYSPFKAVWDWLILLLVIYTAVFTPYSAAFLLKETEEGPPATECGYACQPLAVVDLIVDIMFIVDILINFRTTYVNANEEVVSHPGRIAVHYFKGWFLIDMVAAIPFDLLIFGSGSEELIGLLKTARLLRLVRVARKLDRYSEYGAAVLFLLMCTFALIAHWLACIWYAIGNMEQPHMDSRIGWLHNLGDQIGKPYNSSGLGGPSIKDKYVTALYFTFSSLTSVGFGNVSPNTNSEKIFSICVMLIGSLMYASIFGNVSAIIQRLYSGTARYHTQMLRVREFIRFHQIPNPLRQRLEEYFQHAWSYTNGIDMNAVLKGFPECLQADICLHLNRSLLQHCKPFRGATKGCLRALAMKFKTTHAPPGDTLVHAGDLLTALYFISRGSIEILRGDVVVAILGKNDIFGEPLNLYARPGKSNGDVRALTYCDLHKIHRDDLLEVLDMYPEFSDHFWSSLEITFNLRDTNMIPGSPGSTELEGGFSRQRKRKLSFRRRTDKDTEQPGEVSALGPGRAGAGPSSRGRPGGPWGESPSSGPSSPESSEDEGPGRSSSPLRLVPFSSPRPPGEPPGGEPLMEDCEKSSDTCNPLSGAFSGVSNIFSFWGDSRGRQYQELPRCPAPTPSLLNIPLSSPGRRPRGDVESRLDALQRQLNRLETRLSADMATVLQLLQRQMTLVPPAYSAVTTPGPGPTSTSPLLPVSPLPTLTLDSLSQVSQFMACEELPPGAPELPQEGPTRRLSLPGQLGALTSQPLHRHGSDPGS", "assay": "hERG assay"}, "muscarinic M2 receptor": {"target": "T4, muscarinic M2 receptor (Homo sapiens, UniProt P08172)", "T4 construct": "expressed in transfected cells", "T4 sequence (P08172 1-466)": "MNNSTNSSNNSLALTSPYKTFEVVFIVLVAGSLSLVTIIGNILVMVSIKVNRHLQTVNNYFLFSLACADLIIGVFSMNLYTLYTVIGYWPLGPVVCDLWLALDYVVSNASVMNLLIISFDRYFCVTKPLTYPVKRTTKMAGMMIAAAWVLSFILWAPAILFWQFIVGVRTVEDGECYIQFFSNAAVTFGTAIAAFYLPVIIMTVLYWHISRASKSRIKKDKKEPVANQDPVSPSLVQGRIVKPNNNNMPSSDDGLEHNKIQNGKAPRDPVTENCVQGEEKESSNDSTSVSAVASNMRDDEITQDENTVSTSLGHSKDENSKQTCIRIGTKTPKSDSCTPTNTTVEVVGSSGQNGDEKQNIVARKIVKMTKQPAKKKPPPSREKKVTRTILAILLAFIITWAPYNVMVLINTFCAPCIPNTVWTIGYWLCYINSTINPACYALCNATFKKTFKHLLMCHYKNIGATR", "assay": "R-SAT functional screen, M2", "type": "cell-based", "conditions": "R-SAT", "summary_of_the_method": "as §1"}, "M1 receptor": {"target": "T5, M1 receptor (Homo sapiens, UniProt P11229)", "T5 sequence (P11229 1-460)": "T1 sequence (P11229 1-460)", "assay": "Receptor profile, M1 agonist activity"}, "CYP 3A4": {"target": "CYP 3A4 (Homo sapiens, UniProt P08684)", "sequence (P08684 whole entry)": "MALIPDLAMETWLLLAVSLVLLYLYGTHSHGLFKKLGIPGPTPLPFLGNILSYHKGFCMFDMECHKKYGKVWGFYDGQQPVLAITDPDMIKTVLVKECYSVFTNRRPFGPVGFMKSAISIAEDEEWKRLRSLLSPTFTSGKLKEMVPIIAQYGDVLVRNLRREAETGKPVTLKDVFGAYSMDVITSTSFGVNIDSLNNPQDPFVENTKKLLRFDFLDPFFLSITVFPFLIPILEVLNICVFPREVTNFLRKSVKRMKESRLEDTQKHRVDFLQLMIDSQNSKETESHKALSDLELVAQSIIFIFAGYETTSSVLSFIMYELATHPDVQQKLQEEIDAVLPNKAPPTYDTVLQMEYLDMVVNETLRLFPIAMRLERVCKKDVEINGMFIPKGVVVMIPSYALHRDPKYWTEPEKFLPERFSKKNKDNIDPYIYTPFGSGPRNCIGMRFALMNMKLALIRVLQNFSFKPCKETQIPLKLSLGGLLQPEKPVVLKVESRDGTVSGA", "assay": "biochemical", "description": "The compounds listed in Table 4 were profiled in a panel of in vitro assays for assessment of cardiovascular (hERG), drug-drug interaction (CYP inhibition), and mutagenic (Ames) liability. Microsomal stability was also determined by measuring both rat and human microsomal clearance."}, "[3]": {"test_system": "hyperactivity induced by MK-801", "assay": "MK-801 induced hyperactivity mouse model", "type": "in vivo", "conditions": "mice, sc, salts of the compounds", "description": "as §2"}, "5-HT2A receptor": {"target": "5-HT2A receptor (Homo sapiens, UniProt P28223)", "sequence (P28223 whole entry)": "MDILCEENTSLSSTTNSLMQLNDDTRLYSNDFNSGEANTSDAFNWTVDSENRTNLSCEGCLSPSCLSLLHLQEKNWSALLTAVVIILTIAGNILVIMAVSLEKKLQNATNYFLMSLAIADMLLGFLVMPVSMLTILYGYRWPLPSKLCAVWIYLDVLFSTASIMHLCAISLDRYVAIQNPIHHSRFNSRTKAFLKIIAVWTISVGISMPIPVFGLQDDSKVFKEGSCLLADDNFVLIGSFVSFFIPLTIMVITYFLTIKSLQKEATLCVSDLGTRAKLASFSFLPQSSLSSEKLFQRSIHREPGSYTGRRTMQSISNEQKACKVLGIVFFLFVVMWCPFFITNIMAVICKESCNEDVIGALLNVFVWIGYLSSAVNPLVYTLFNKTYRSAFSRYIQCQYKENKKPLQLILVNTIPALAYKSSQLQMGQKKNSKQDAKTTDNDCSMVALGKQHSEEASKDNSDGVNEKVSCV", "assay": "Receptor profile, 5-HT2A inverse agonism", "type": "cell-based", "conditions": "negative log of the inhibitory IC50 (inverse agonism); read-out: 5-HT2A pIEC50 (converted)"}, "[4]": {"conditions": "dose approx. ID75 in MK-801 hyperactivity assay"}}}
{"smiles": "CN1c2ccc(Cl)cc2N=C(N2CCNCC2)c2ccccc21", "note": "[8-Chloro-5-methyl-11-(piperazin-1-yl)-5H-dibenzo[b,e][1,4]diazepine]", "values": [{"measurement": "IC50", "setting": "CYP 2C19", "value": "> 10", "unit": "µM"}, {"measurement": "microsomal CLint", "setting": "[1]", "value": 23, "unit": "µL/min/mg"}, {"measurement": "Emax", "setting": "muscarinic M1 receptor; read-out: M1 eff (efficacy)", "value": 65, "unit": "%"}, {"measurement": "EC50", "setting": "muscarinic M1 receptor; read-out: M1 pEC50 (converted)", "value": 0.0794, "unit": "µM"}, {"measurement": "IC50", "setting": "CYP 2C9", "value": "> 10", "unit": "µM"}, {"measurement": "IC50", "setting": "CYP 1A2", "value": "> 10", "unit": "µM"}, {"measurement": "IC50", "setting": "CYP 2D6", "value": "> 10", "unit": "µM"}, {"measurement": "microsomal CLint", "setting": "Rat microsomal clearance", "value": 1090, "unit": "µL/min/mg"}, {"measurement": "M3 eff (efficacy)", "setting": "muscarinic M3 receptor", "value": 14}, {"measurement": "Amphetamine model (ID50 mg/kg po)", "setting": "[2]; po", "value": ">10", "unit": "mg/kg"}, {"measurement": "Amphetamine model (ID50 mg/kg sc)", "setting": "[2]; sc", "value": 6.0, "unit": "mg/kg"}, {"measurement": "EC50", "setting": "D2 receptor", "value": 0.0158, "unit": "µM"}, {"measurement": "Emax", "setting": "D2 receptor; read-out: D2 intrinsic activity %", "value": 29, "unit": "%"}, {"measurement": "Ames", "setting": "Ames mutagenesis assay", "value": "Neg."}, {"measurement": "NOR Interpretation", "setting": "novel object recognition", "value": "no effect"}, {"measurement": "NOR - 60 minutes post training", "setting": "novel object recognition; [4]", "value": "retained"}, {"measurement": "NOR - 120 minutes post training", "setting": "novel object recognition; [4]", "value": "not retained"}, {"measurement": "IC50", "setting": "hERG", "value": 1.3, "unit": "µM"}, {"measurement": "Emax", "setting": "muscarinic M2 receptor; read-out: M2 eff (efficacy)", "value": 138, "unit": "%"}, {"measurement": "EC50", "setting": "muscarinic M2 receptor; read-out: M2 pEC50 (converted)", "value": 1.26, "unit": "µM"}, {"measurement": "EC50", "setting": "M1 receptor", "value": 0.0794, "unit": "µM"}, {"measurement": "Emax", "setting": "M1 receptor; read-out: M1 intrinsic activity %", "value": 65, "unit": "%"}, {"measurement": "IC50", "setting": "CYP 3A4", "value": 0.4, "unit": "µM"}, {"measurement": "MK-801 model (ID50 mg/kg sc)", "setting": "[3]", "value": 1.5, "unit": "mg/kg"}, {"measurement": "IC50", "setting": "5-HT2A receptor", "value": "> 10", "unit": "µM"}]}
